The results in this text go back to publication PMC9350837, “Erwinia tasmaniensis levansucrase shows enantiomer selection for (S)-1,2,4-butanetriol” (Acta Crystallographica. Section F, Structural Biology …, 2022).

The assay concerns the target T1, EtLsc (Erwinia tasmaniensis levansucrase) (Erwinia tasmaniensis, UniProt B2VCC3).
T1 construct: gene lsc; lsc gene amplified from Et1/99, pMCSG49 vector, E. coli BL21(DE3) Star pLysS; His6 tag cleaved with TEV protease; IMAC and size exclusion; catalytic triad Asp46, Asp203, Glu287
As to the kind of experiment: microscale thermophoresis, label-free (Monolith NT.LabelFree). It is filed as binding.

T1 sequence (B2VCC3 entry or part of it): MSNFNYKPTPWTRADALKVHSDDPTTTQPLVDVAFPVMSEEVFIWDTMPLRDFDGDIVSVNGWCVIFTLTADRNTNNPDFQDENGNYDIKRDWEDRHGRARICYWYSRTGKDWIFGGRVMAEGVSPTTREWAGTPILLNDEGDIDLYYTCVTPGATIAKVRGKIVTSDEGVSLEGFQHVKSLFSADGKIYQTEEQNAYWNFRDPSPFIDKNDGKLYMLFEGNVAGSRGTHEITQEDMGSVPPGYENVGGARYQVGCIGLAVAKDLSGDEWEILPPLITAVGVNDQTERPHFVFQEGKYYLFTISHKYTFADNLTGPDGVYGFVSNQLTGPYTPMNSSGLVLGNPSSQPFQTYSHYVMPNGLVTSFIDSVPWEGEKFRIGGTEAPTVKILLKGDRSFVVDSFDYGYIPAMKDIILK

On to `OCC[C@H](O)CO` (mixture of isomers) [(S)-1,2,4-butanetriol], for which the Kd – broadly, the concentration at which binding is half-saturated – amounted to 84.9 ± 13.4 mM.
